Results taken from ChEMBL document CHEMBL2046283, “Iotrochamides A and B, antitrypanosomal compounds from the Australian marine sponge Iotrochota sp” (Bioorg Med Chem Lett, 2012).

Legend:
[1] = Growth inhibition of human HEK293 cells at 70 uM after 48 hrs by alamar blue assay relative to control; assay type: cell-based; conditions: read-out: GI
[2] = system: Trypanosoma brucei brucei; experiment: Antitrypanosomal activity against Trypanosoma brucei brucei BS427 after 48 hrs by alamar blue assay; assay type: functional, organism-based; conditions: BS427, 48 h
[3] = Growth inhibition of human HEK293 cells at 50 uM after 48 hrs by alamar blue assay relative to control; assay type: cell-based; conditions: read-out: GI

| SMILES | inhibition at 48 h, 70 µM [1] | IC50 [2] | inhibition at 48 h, 50 µM [3] |
| --- | --- | --- | --- |
| CO/C(=C\c1ccccc1)C(=O)N[C@@H](Cc1c[nH]c2cc(Br)ccc12)C(=O)O [IOTROCHAMIDES B] | 100% | 3.4 µM |  |
| CO/C(=C\c1ccccc1)C(=O)N[C@@H](Cc1ccc(O)cc1)C(=O)O [IOTROCHAMIDES A] |  | 4.7 µM | 85% |
